Measurements reported in patent US20250026769A1, “PAPD5 INHIBITORS AND METHODS OF USE THEREOF” (The Children's Medical Center Corporation, priority 2021, published 2025).
Read-outs that look alike come from different tables or passages of the source.

How the values were obtained:
rPAPD5 = target: T1, rPAPD5 (Homo sapiens, UniProt Q8NDF8); assay: differential scanning fluorimetry (DSF) binding and stabilization of rPAPD5; settings: for ΔTm at 100 µM: read-out: ΔTm at 100 μM; for ΔTm at 1 µM: read-out: ΔTm at 1 μM
T1 construct: made in house
T1 sequence (Q8NDF8 68-698 isoform Q8NDF8-5 limits assumed): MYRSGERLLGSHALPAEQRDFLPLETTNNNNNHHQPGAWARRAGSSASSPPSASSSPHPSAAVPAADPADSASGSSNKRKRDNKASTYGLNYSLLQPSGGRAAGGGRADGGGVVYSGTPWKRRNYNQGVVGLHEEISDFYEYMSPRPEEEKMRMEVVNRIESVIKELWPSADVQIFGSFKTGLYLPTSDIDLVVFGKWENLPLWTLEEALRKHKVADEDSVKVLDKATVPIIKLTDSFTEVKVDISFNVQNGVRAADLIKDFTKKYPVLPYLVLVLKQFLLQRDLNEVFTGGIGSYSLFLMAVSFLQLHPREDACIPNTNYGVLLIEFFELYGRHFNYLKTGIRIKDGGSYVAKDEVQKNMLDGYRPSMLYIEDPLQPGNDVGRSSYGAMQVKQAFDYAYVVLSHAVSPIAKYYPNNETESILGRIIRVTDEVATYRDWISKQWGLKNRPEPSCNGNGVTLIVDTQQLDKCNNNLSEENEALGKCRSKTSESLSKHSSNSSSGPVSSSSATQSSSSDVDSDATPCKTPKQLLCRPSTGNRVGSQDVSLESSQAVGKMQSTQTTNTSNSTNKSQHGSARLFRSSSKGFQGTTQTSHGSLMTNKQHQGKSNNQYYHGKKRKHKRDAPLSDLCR
In short: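 Differential scanning fluorimetry was used to measure how test compounds bind and thermally stabilize rPAPD5. The reaction contained SYPRO orange dye diluted 1:5000 in […] of buffer with […], 25 mM Tris-HCl, 5 mM MgCl2 and 50 mM KCl. ΔTm was calculated relative to a DMSO control.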

[1] = system: TERC 3′ end processing in DC patient iPSCs; assay: TERC 3′ end processing by RACE in DC patient / PARN-mutant iPSCs; format: cell-based, human; settings: Homo sapiens, iPSC, read-out: iPSC-based RACE activity
Experimental: Compound 266A had activity ˜2-logs higher in the in vitro RNA oligoadenylation assay compared to the parental compound cmpd. 1, approximating the activity of RG7834 (FIG. 7). […] 1. Compounds 295A and 296A had activity 2-3 logs higher in DC patient iPSCs, showing TERC maturation at 1 nM, similar to RG7834 (FIG. 6). […] Referring to Table 1D, “+” refers to activity at 1 μM, “++” refers to activity above 1 nM and below 1 μM, and “+++” refers to activity at <1 nM, “ND” refers to not determined.

[2] = 100 μM test compound, shift vs DMSO control
[3] = patient iPSCs, concentration class at which activity is seen
[4] = 10 μM test compound (Table 2a), read-out: ΔTm at 10 μM
[5] = 10 μM test compound, shift vs DMSO control, read-out: ΔTm (Table 2, starred: the compound was tested at 10 μM)

SMILES	ΔTm at 100 µM (rPAPD5; [2]) [°C]	minimal effective concentration [1, 3] [µM]	ΔTm at 1 µM (rPAPD5; 1 μM test compound (Table 2a)) [°C]	ΔTm at 10 µM (rPAPD5; [4]) [°C]	other results
CCCc1ccc(Nc2c(S(=O)(=O)N3CCOCC3)cnc3ccc(Cl)cc23)c(C(=O)O)c1 [Compound 319A, 2-[(6-chloro-3-morpholinosulfonyl-4-quinolyl)amino]-5-propyl-benzoic acid]	1 to 5				
CC(C)c1ccc(Nc2c(S(=O)(=O)N3CCOCC3)cnc3ccc(Cl)cc23)c(C(=O)O)c1 [Compound 320A, 2-[(6-chloro-3-morpholinosulfonyl-4-quinolyl)amino]-5-isopropyl-benzoic acid]	1 to 5				
O=C(O)c1ccccc1Nc1c(S(=O)(=O)N2CCOCC2)cnc2ccc(B(O)O)cc12 [Compound 321A, 2-[(6-borono-3-morpholinosulfonyl-4-quinolyl)amino]benzoic acid]	< 1				
O=C(O)c1ccccc1Nc1c(S(=O)(=O)N2CCOCC2)cnc2ccc(O)cc12 [Compound 322A, 2-[(6-hydroxy-3-morpholinosulfonyl-4-quinolyl)amino]benzoic acid]	> 5				
O=C(O)c1ccccc1Nc1c(C2CCS(=O)(=O)CC2)c[n+]([O-])c2ccc(Cl)cc12 [Compound 323A, 2-[[6-chloro-3-(1,1-dioxothian-4-yl)-1-oxido-quinolin-1-ium-4-yl]amino]benzoic acid]	> 5				
O=C(O)c1c(Nc2c(S(=O)(=O)N3CCOCC3)cnc3ccc(Cl)cc23)ccc(Cl)c1O [Compound 324A, 3-chloro-6-[(6-chloro-3-morpholinosulfonyl-4-quinolyl)amino]-2-hydroxy-benzoic acid]	> 5				
O=C(O)c1ccccc1Sc1c(S(=O)(=O)N2CCOCC2)cnc2ccc(Cl)cc12 [Compound 328A]					ΔTm at 100 µM (rPAPD5): 1 to 5 °C
O=C(O)c1cc(Cl)ccc1Sc1c(S(=O)(=O)N2CCOCC2)cnc2ccc(Cl)cc12 [Compound 330A, 5-chloro-2-[(6-chloro-3-morpholinosulfonyl-4-quinolyl)sulfanyl]benzoic acid]	> 5				
N#Cc1ccc(Nc2c(S(=O)(=O)N3CCOCC3)cnc3ccc(Cl)cc23)c(C(=O)O)c1 [Compound 338A, 2-[(6-chloro-3-morpholinosulfonyl-4-quinolyl)amino]-5-cyano-benzoic acid]	> 5				
O=C(O)c1cc(Cl)ccc1Nc1c(C2CCNC2)cnc2ccc(Cl)cc12 (stereo not shown) [Compound 357A, 5-chloro-2-((6-chloro-3-(pyrrolidin-3-yl)quinolin-4-yl)amino)benzoic acid]	> 5	1	> 5	> 5	
O=C(O)c1cc(Cl)ccc1Nc1c(-c2nnn[nH]2)cnc2ccc(Cl)cc12 [Compound 359A, 5-chloro-2-[[6-chloro-3-(1H-tetrazol-5-yl)-4-quinolyl]amino]benzoic acid]	> 5		> 5	> 5	
O=C(O)c1cc(Cl)ccc1Nc1c(N2CCNCC2)cnc2ccc(Cl)cc12 [Compound 362A, 5-chloro-2-[(6-chloro-3-piperazin-1-yl-4-quinolyl)amino]benzoic acid]	> 5	1	> 5	> 5	
O=C(O)c1cc(Cl)ccc1Nc1c(C2=CCNCC2)cnc2ccc(Cl)cc12 [Compound 368A, 5-chloro-2-[[6-chloro-3-(1,2,3,6-tetrahydropyridin-4-yl)-4-quinolyl]amino]benzoic acid]	> 5	1	> 5	> 5	
O=C(O)c1cc(Cl)ccc1Nc1c(C(=O)N2CCOCC2)cnc2ccc(Cl)cc12 [Compound 372A, 5-chloro-2-[[6-chloro-3-(morpholine-4-carbonyl)-4-quinolyl]amino]benzoic acid]	> 5	1	> 5	> 5	
NC(=O)c1ccc(Nc2c(S(=O)(=O)N3CCOCC3)cnc3ccc(Cl)cc23)c(C(=O)O)c1 [Compound 373A, 5-carbamoyl-2-[(6-chloro-3-morpholinosulfonyl-4-quinolyl)amino]benzoic acid]					ΔTm at 100 µM (rPAPD5): 1 to 5 °C
O=C(O)c1cc(Cl)ccc1Nc1c(N2CCC(OC(F)(F)F)CC2)cnc2ccc(Cl)cc12 [Compound 394A, 5-chloro-2-[[6-chloro-3-[4-(trifluoromethoxy)-1-piperidyl]-4-quinolyl]amino]benzoic acid]		< 0.001	> 5	> 5	ΔTm at 10 µM (rPAPD5; [5]): > 5 °C
O=C(O)c1ccc(Nc2c(S(=O)(=O)N3CCOCC3)cnc3ccc(Cl)cc23)c(C(=O)O)c1 [Compound 398A, 4-[(6-chloro-3-morpholinosulfonyl-4-quinolyl)amino]benzene-1,3-dicarboxylic acid]	< 1				
O=C(O)c1cc(Cl)ccc1Nc1c(C2CCC(F)CC2)cnc2ccc(Cl)cc12 (stereo not shown) [Compound 400A, 5-chloro-2-[[6-chloro-3-(4-fluorocyclohexyl)-4-quinolyl]amino]benzoic acid]					minimal effective concentration [1]: < 0.001 µM; ΔTm at 10 µM (rPAPD5; read-out: ΔTm (Table 2, starred: the compound was tested at 10 μM)): > 5 °C; ΔTm at 1 µM (rPAPD5): > 5 °C; ΔTm at 10 µM (rPAPD5; read-out: ΔTm at 10 μM): > 5 °C
O=C(O)c1cc(Cl)ccc1Nc1c(C2=CCOC2)cnc2ccc(Cl)cc12 [Compound 401A, 5-chloro-2-[[6-chloro-3-(2,5-dihydrofuran-3-yl)-4-quinolyl]amino]benzoic acid]	> 5	1	> 5	> 5	
O=C(O)c1cc(Cl)ccc1Nc1c(C2=CCNC2)cnc2ccc(Cl)cc12 [Compound 402A, 5-chloro-2-((6-chloro-3-(2,5-dihydro-1H-pyrrol-3-yl)quinolin-4-yl)amino)benzoic acid]	> 5	1	> 5	> 5	
O=C1CC=C(c2cnc3ccc(Cl)cc3c2Nc2ccc(Cl)cc2C(=O)O)CC1 [Compound 403A, 5-chloro-2-[[6-chloro-3-(4-oxocyclohexen-1-yl)-4-quinolyl]amino]benzoic acid]	> 5	1	> 5	> 5	
O=C(O)c1cc(Cl)ccc1Nc1c(S(=O)(=O)N2CCSCC2)cnc2cc(F)c(Cl)cc12 [Compound 415A, 5-chloro-2-[(6-chloro-7-fluoro-3-thiomorpholinosulfonyl-4-quinolyl)amino]benzoic acid]	> 5	1	> 5	> 5	
O=C(O)c1cc(Cl)c(F)cc1Nc1c(S(=O)(=O)N2CCSCC2)cnc2ccc(Cl)cc12 [Compound 425A, 5-chloro-2-[(6-chloro-3-thiomorpholinosulfonyl-4-quinolyl)amino]-4-fluoro-benzoic acid]	> 5	0.001 to 1	> 5	> 5	
Cc1cc(Nc2c(S(=O)(=O)N3CCSCC3)cnc3ccc(Cl)cc23)c(C(=O)O)cc1Cl [Compound 426A, 5-chloro-2-[(6-chloro-3-thiomorpholinosulfonyl-4-quinolyl)amino]-4-methyl-benzoic acid]		1	1 to 5	> 5	ΔTm at 10 µM (rPAPD5; [5]): > 5 °C
O=C(O)c1cc(Cl)cc(F)c1Nc1c(S(=O)(=O)N2CCSCC2)cnc2ccc(Cl)cc12 [Compound 427A, 5-chloro-2-[(6-chloro-3-thiomorpholinosulfonyl-4-quinolyl)amino]-3-fluoro-benzoic acid]	> 5	0.001 to 1	> 5	> 5	
O=C(O)c1cc(Cl)ccc1Nc1c(S(=O)(=O)N2CCS(=O)(=O)CC2)cnc2ccc(Cl)cc12 [Compound 429A, 5-chloro-2-[[6-chloro-3-[(1,1-dioxo-1,4-thiazinan-4-yl)sulfonyl]-4-quinolyl]amino]benzoic acid]	> 5		> 5	> 5	
O=C(O)c1cc(Cl)ccc1Nc1c(N2CCC(Cl)(Cl)CC2)cnc2ccc(Cl)cc12 [Compound 430A, 5-chloro-2-[[6-chloro-3-(4,4-dichloro-1-piperidyl)-4-quinolyl]amino]benzoic acid]		< 0.001	> 5	> 5	ΔTm at 10 µM (rPAPD5; [5]): > 5 °C
